Laboratory results: patent US20110233146A1, “S[…] CONTROL COMPOSITION, SYSTEMS, AND RELATED METHODS THEREFOR” (Siemens Water Technologies Corp., priority 2009, published 2011)

Key:
[1] = system: atmospheric hydrogen sulfide; assay: Sewerage system field trial (Example 1): atmospheric hydrogen sulfide logged at lift stations LS481 and LS480
Excerpt: The collection system consisted of four serial master lift stations LS 479, LS482, LS 481, and LS 480 feeding wastewater to a central treatment plant WWTP as depicted in FIG. 2.
Calcium hydroxide (with or without anthraquinone) feed rate was dependent mainly on the wastewater flow rate.
Data collected included atmospheric hydrogen sulfide collected every five minutes with monitor/loggers within the monitoring manhole at lift station LS481 and inside the lift station LS480, and dissolved sulfide grab samples at each as well as treatment plant WWTP. Nitrate residual and pH data were also collected. […] The chemical feed line was disposed to feed into the manhole about 50 feet upstream of lift station LS482.
Over the next few weeks the controller pH set point was adjusted until the desired atmospheric pH was attained downstream at lift station LS481.
Two batches of a formulation of calcium hydroxide supplemented with anthraquinone were fed to determine the effectiveness of the combination for controlling odor.
The primary monitoring point for atmospheric hydrogen sulfide was at lift station LS481. The primary monitoring point for dissolved sulfide was the plant influent. During the period from June 23 to July 14 background data was gathered (FIG. 4) to reflect the system operating on nitrate salt feed at all four lift stations.
The data was tabulated for every day on which no calcium hydroxide was fed and that nitrate salt was fed at all four lift stations.

[2] = system: atmospheric hydrogen sulfide; assay: Example 2: slug dose of anthraquinone alone, all other chemical feed off at LS482, atmospheric hydrogen sulfide by OdaLog monitor/loggers
Experimental: In order to gather the required information, the two OdaLog® hydrogen sulfide monitor/loggers were deployed in the manhole just prior to lift station LS481 prior to 10:00 a.m. on day one. At 10:00 a.m. on day one all chemical feed was turned off at lift station LS482. At 10:00 a.m. on day two a ten gallon slug of anthraquinone (AQUIT) was added to the flow through the manhole at lift station LS482. At 10:00 a.m. on day three, regular chemical feed was resumed at lift station LS482. The OdaLog® monitor/loggers were retrieved on day six and downloaded to retrieve the atmospheric hydrogen sulfide concentrations before, during, and following the trial.
Data was collected over a period of several days to include a full day prior to the test and a full day after the test as summarized in the graph of FIG. 7.
The average atmospheric hydrogen sulfide concentration for the 24 hour period with no chemical additive was about 1,032 ppmv. During the following 24 hour period during which the effect of the slug dose of anthraquinone, the atmospheric hydrogen sulfide concentration averaged about 999 ppmv; the hydrogen sulfide concentration was thus reduced by about 3.2 percent.

[3] = 10/14 to 10/17, after 10 gal anthraquinone slug on 10/13 at LS482, with calcium hydroxide slurry 258 GPD, nitrate salt solution 197 GPD

O=C1c2ccccc2C(=O)c2ccccc21 [Anthraquinone, anthraquinone]
LS480 Avg Atm H2S [1, 3]: 305 ppmv
LS481 Avg Atm H2S [1, 3]: 100 ppmv
decrease in atmospheric hydrogen sulfide concentration at the downstream monitoring point ([1]; anthraquinone added to the alkaline material used for pH adjustment, versus alkaline material without it): 21%
atmospheric hydrogen sulfide downstream dropped ([1]; anthraquinone added with calcium hydroxide to the sewer upstream of the sampling point (see Table 8)): 37.5%
reduction in the hydrogen sulfide concentration at the downstream monitoring point lift station LS481 ([1]; one time slug of anthraquinone along with the calcium hydroxide feed, over the next four days): about 38%
average atmospheric hydrogen sulfide concentration ([2]; 24 hour period under the effect of a ten gallon slug of anthraquinone alone, preceding 24 hours with no chemical additive about 1,032 ppmv): about 999 ppmv
hydrogen sulfide concentration reduced by ([2]; ten gallon slug of anthraquinone alone versus preceding 24 hours with no chemical additive): about 3.2%
